Measurements reported in US11944112B2, “Stabilized steviol glycoside malonic acid esters” (CARGILL, INCORPORATED, priority 2020, dated 2024).
Where a SMILES comes first, the peptide text is derived from it.

Experiment: Acid-stability at pH 1.7 (percent recovered by UHPLC/UV)
Type: physicochemical
Conditions: water pH 1.7, room temperature (about 22° C.)
Method: Acid-stability measurements were taken for samples of aspartame, SGMAs, and a combination of SGMAs with the stabilizer. […] Acid-stability was measured in water having a pH of 1.7. The concentration of the aspartame or the SGMAs in the samples during the testing was 0.1 to 10 wt %. The samples were stored at room temperature (nominally about 22° C.) and samples were taken periodically. The concentration of the aspartame, SGMAs, MCQAs and DCQAs, as the case may be, was measured by UHPLC/UV then divided by the original concentration to determine a percent recovered.
FIG. 1 illustrates the results for three samples—one had 3000 ppm (0.3 wt %) aspartame, another had 5 wt % SGMAs, and the third had 5 wt % each of the SGMAs and the stabilizer. Aspartame has limited solubility, but 3000 ppm is on par with concentrations of throw syrups used to make some diet carbonated soft drinks that have about 500 ppm of aspartame. […] After 14 days of storage, the concentration of aspartame was about 78% of the initial concentration; stated another way, about 22% of the aspartame was degraded. In the same 14 days, the concentration of SGMAs in the SGMA-only sample was about 67% of the initial concentration, a degradation of about 33%. That means the SGMA degradation was 50% higher than the aspartame degradation (33% vs 22%).

- degradation after 14 days of storage: about 22%
- concentration as percent of the initial concentration (percent recovered) after 14 days of storage (3000 ppm aspartame, 5 wt % SGMAs, or 5 wt % each SGMAs and stabilizer): about 78%
SMILES: COC(=O)[C@H](Cc1ccccc1)NC(=O)[C@@H](N)CC(=O)O [aspartame] (H-Asp-Phe-OMe)
